Measured values as given in ChEMBL document CHEMBL1155521, “Synthesis and antibacterial activity of novel 4''-O-arylalkylcarbamoyl and 4''-O-((arylalkylamino)-4-oxo-butyl)carbamoyl clarithromycin derivatives” (2010).
Converted amounts (≈) assume the structure as drawn.

Key:
Assay type in all cases: functional
Streptococcus pneumoniae [1] = assay: Antibacterial activity against erythromycin-resistant Streptococcus pneumoniae AB1-1 expressing erm and mef gene by broth microdilution method
Streptococcus pneumoniae [2] = assay: Antibacterial activity against erythromycin-resistant Streptococcus pneumoniae B1 expressing erm gene by broth microdilution method
Streptococcus pneumoniae [3] = assay: Antibacterial activity against erythromycin-resistant Streptococcus pneumoniae A22072 expressing mef gene by broth microdilution method
Streptococcus pneumoniae [4] = assay: Antibacterial activity against erythromycin-susceptible Streptococcus pneumoniae ATCC 49619 by broth microdilution method

Compound: CC[C@H]1OC(=O)[C@H](C)[C@@H](O[C@H]2C[C@@](C)(OC)[C@@H](OC(=O)NCCc3ccc(O)cc3)[C@H](C)O2)[C@H](C)[C@@H](O[C@@H]2O[C@H](C)C[C@H](N(C)C)[C@H]2O)[C@](C)(OC)C[C@@H](C)C(=O)[C@H](C)[C@@H](O)[C@]1(C)O
- MIC (Streptococcus pneumoniae [1]): 64 µg/mL (≈ 70.2 µM)
- MIC (Streptococcus pneumoniae [2]): 16 µg/mL (≈ 17.6 µM)
- MIC (Streptococcus pneumoniae [3]): 1 µg/mL (≈ 1.1 µM)
- MIC (Streptococcus pneumoniae [4]): 0.03 µg/mL (≈ 0.0329 µM)

Compound: CC[C@H]1OC(=O)[C@H](C)[C@@H](O[C@H]2C[C@@](C)(OC)[C@@H](OC(=O)NCCc3ccc4c(c3)OCO4)[C@H](C)O2)[C@H](C)[C@@H](O[C@@H]2O[C@H](C)C[C@H](N(C)C)[C@H]2O)[C@](C)(OC)C[C@@H](C)C(=O)[C@H](C)[C@@H](O)[C@]1(C)O
- MIC (Streptococcus pneumoniae [1]): 64 µg/mL (≈ 68.1 µM)
- MIC (Streptococcus pneumoniae [2]): 32 µg/mL (≈ 34.1 µM)
- MIC (Streptococcus pneumoniae [3]): 0.25 µg/mL (≈ 0.266 µM)
- MIC (Streptococcus pneumoniae [4]): 0.06 µg/mL (≈ 0.0639 µM)

Compound: CC[C@H]1OC(=O)[C@H](C)[C@@H](O[C@H]2C[C@@](C)(OC)[C@@H](OC(=O)NCCCC(=O)NCc3ccccc3)[C@H](C)O2)[C@H](C)[C@@H](O[C@@H]2O[C@H](C)C[C@H](N(C)C)[C@H]2O)[C@](C)(OC)C[C@@H](C)C(=O)[C@H](C)[C@@H](O)[C@]1(C)O
- MIC (Streptococcus pneumoniae [1]): 0.25 µg/mL (≈ 0.259 µM)
- MIC (Streptococcus pneumoniae [2]): 2 µg/mL (≈ 2.07 µM)
- MIC (Streptococcus pneumoniae [3]): 0.5 µg/mL (≈ 0.517 µM)
- MIC (Streptococcus pneumoniae [4]): 0.03 µg/mL (≈ 0.031 µM)

Compound: CC[C@H]1OC(=O)[C@H](C)[C@@H](O[C@H]2C[C@@](C)(OC)[C@@H](O)[C@H](C)O2)[C@H](C)[C@@H](O[C@@H]2O[C@H](C)C[C@H](N(C)C)[C@H]2O)[C@](C)(OC)C[C@@H](C)C(=O)[C@H](C)[C@@H](O)[C@]1(C)O [CLARITHROMYCIN]
- MIC (Streptococcus pneumoniae [1]): 128 µg/mL (≈ 171 µM)
- MIC (Streptococcus pneumoniae [2]): 64 µg/mL (≈ 85.6 µM)
- MIC (Streptococcus pneumoniae [3]): 4 µg/mL (≈ 5.35 µM)
- MIC (Streptococcus pneumoniae [4]): 0.03 µg/mL (≈ 0.0401 µM)

Compound: CC[C@H]1OC(=O)[C@H](C)[C@@H](O[C@H]2C[C@@](C)(OC)[C@@H](OC(=O)NCCCC(=O)NCc3ccc(F)cc3)[C@H](C)O2)[C@H](C)[C@@H](O[C@@H]2O[C@H](C)C[C@H](N(C)C)[C@H]2O)[C@](C)(OC)C[C@@H](C)C(=O)[C@H](C)[C@@H](O)[C@]1(C)O
- MIC (Streptococcus pneumoniae [1]): 2 µg/mL (≈ 2.03 µM)
- MIC (Streptococcus pneumoniae [2]): 1 µg/mL (≈ 1.02 µM)
- MIC (Streptococcus pneumoniae [3]): 0.25 µg/mL (≈ 0.254 µM)
- MIC (Streptococcus pneumoniae [4]): 0.03 µg/mL (≈ 0.0305 µM)

Compound: CC[C@H]1OC(=O)[C@H](C)[C@@H](O[C@H]2C[C@@](C)(OC)[C@@H](OC(=O)NCc3ccc(F)cc3)[C@H](C)O2)[C@H](C)[C@@H](O[C@@H]2O[C@H](C)C[C@H](N(C)C)[C@H]2O)[C@](C)(OC)C[C@@H](C)C(=O)[C@H](C)[C@@H](O)[C@]1(C)O
- MIC (Streptococcus pneumoniae [1]): 8 µg/mL (≈ 8.9 µM)
- MIC (Streptococcus pneumoniae [2]): 4 µg/mL (≈ 4.45 µM)
- MIC (Streptococcus pneumoniae [3]): 0.5 µg/mL (≈ 0.556 µM)
- MIC (Streptococcus pneumoniae [4]): 0.06 µg/mL (≈ 0.0667 µM)

Compound: CC[C@H]1OC(=O)[C@H](C)[C@@H](O[C@H]2C[C@@](C)(OC)[C@@H](OC(=O)NCCCC(=O)NCCc3ccc(O)cc3)[C@H](C)O2)[C@H](C)[C@@H](O[C@@H]2O[C@H](C)C[C@H](N(C)C)[C@H]2O)[C@](C)(OC)C[C@@H](C)C(=O)[C@H](C)[C@@H](O)[C@]1(C)O
- MIC (Streptococcus pneumoniae [1]): 1 µg/mL (≈ 1 µM)
- MIC (Streptococcus pneumoniae [2]): 0.25 µg/mL (≈ 0.251 µM)
- MIC (Streptococcus pneumoniae [3]): 0.5 µg/mL (≈ 0.502 µM)
- MIC (Streptococcus pneumoniae [4]): 0.03 µg/mL (≈ 0.0301 µM)

Compound: CC[C@H]1OC(=O)[C@H](C)[C@@H](O[C@H]2C[C@@](C)(OC)[C@@H](OC(=O)NCc3ccc(OC)cc3)[C@H](C)O2)[C@H](C)[C@@H](O[C@@H]2O[C@H](C)C[C@H](N(C)C)[C@H]2O)[C@](C)(OC)C[C@@H](C)C(=O)[C@H](C)[C@@H](O)[C@]1(C)O
- MIC (Streptococcus pneumoniae [1]): 32 µg/mL (≈ 35.1 µM)
- MIC (Streptococcus pneumoniae [2]): 16 µg/mL (≈ 17.6 µM)
- MIC (Streptococcus pneumoniae [3]): 0.25 µg/mL (≈ 0.274 µM)
- MIC (Streptococcus pneumoniae [4]): 0.03 µg/mL (≈ 0.0329 µM)

Compound: CC[C@H]1OC(=O)[C@H](C)[C@@H](O[C@H]2C[C@@](C)(OC)[C@@H](O)[C@H](C)O2)[C@H](C)[C@@H](O[C@@H]2O[C@H](C)C[C@H](N(C)C)[C@H]2O)[C@](C)(O)C[C@@H](C)CN(C)[C@H](C)[C@@H](O)[C@]1(C)O [AZITHROMYCIN]
- MIC (Streptococcus pneumoniae [1]): 256 µg/mL (≈ 342 µM)
- MIC (Streptococcus pneumoniae [2]): 128 µg/mL (≈ 171 µM)
- MIC (Streptococcus pneumoniae [3]): 4 µg/mL (≈ 5.34 µM)
- MIC (Streptococcus pneumoniae [4]): 0.03 µg/mL (≈ 0.0401 µM)

Compound: CC[C@H]1OC(=O)[C@H](C)[C@@H](O[C@H]2C[C@@](C)(OC)[C@@H](OC(=O)NCCc3ccccc3Cl)[C@H](C)O2)[C@H](C)[C@@H](O[C@@H]2O[C@H](C)C[C@H](N(C)C)[C@H]2O)[C@](C)(OC)C[C@@H](C)C(=O)[C@H](C)[C@@H](O)[C@]1(C)O
- MIC (Streptococcus pneumoniae [1]): 128 µg/mL (≈ 138 µM)
- MIC (Streptococcus pneumoniae [2]): 128 µg/mL (≈ 138 µM)
- MIC (Streptococcus pneumoniae [3]): 4 µg/mL (≈ 4.3 µM)
- MIC (Streptococcus pneumoniae [4]): 0.12 µg/mL (≈ 0.129 µM)

Compound: CC[C@H]1OC(=O)[C@H](C)[C@@H](O[C@H]2C[C@@](C)(OC)[C@@H](OC(=O)NCc3ccccc3)[C@H](C)O2)[C@H](C)[C@@H](O[C@@H]2O[C@H](C)C[C@H](N(C)C)[C@H]2O)[C@](C)(OC)C[C@@H](C)C(=O)[C@H](C)[C@@H](O)[C@]1(C)O
- MIC (Streptococcus pneumoniae [1]): 8 µg/mL (≈ 9.08 µM)
- MIC (Streptococcus pneumoniae [2]): 4 µg/mL (≈ 4.54 µM)
- MIC (Streptococcus pneumoniae [3]): 0.25 µg/mL (≈ 0.284 µM)
- MIC (Streptococcus pneumoniae [4]): 0.25 µg/mL (≈ 0.284 µM)

Compound: CC[C@H]1OC(=O)[C@H](C)[C@@H](O[C@H]2C[C@@](C)(OC)[C@@H](OC(=O)NCCCC(=O)NCc3ccc(OC)cc3)[C@H](C)O2)[C@H](C)[C@@H](O[C@@H]2O[C@H](C)C[C@H](N(C)C)[C@H]2O)[C@](C)(OC)C[C@@H](C)C(=O)[C@H](C)[C@@H](O)[C@]1(C)O
- MIC (Streptococcus pneumoniae [1]): 1 µg/mL (≈ 1 µM)
- MIC (Streptococcus pneumoniae [2]): 0.06 µg/mL (≈ 0.0602 µM)
- MIC (Streptococcus pneumoniae [3]): 0.25 µg/mL (≈ 0.251 µM)
- MIC (Streptococcus pneumoniae [4]): 0.03 µg/mL (≈ 0.0301 µM)

Compound: CC[C@H]1OC(=O)[C@H](C)[C@@H](O[C@H]2C[C@@](C)(OC)[C@@H](OC(=O)NCCc3ccccc3)[C@H](C)O2)[C@H](C)[C@@H](O[C@@H]2O[C@H](C)C[C@H](N(C)C)[C@H]2O)[C@](C)(OC)C[C@@H](C)C(=O)[C@H](C)[C@@H](O)[C@]1(C)O
- MIC (Streptococcus pneumoniae [1]): 32 µg/mL (≈ 35.7 µM)
- MIC (Streptococcus pneumoniae [2]): 16 µg/mL (≈ 17.9 µM)
- MIC (Streptococcus pneumoniae [3]): 0.5 µg/mL (≈ 0.559 µM)
- MIC (Streptococcus pneumoniae [4]): 0.06 µg/mL (≈ 0.067 µM)

Compound: CC[C@H]1OC(=O)[C@H](C)[C@@H](O[C@H]2C[C@@](C)(OC)[C@@H](OC(=O)NCCCC(=O)NCCc3ccccc3Cl)[C@H](C)O2)[C@H](C)[C@@H](O[C@@H]2O[C@H](C)C[C@H](N(C)C)[C@H]2O)[C@](C)(OC)C[C@@H](C)C(=O)[C@H](C)[C@@H](O)[C@]1(C)O
- MIC (Streptococcus pneumoniae [1]): 32 µg/mL (≈ 31.5 µM)
- MIC (Streptococcus pneumoniae [2]): 32 µg/mL (≈ 31.5 µM)
- MIC (Streptococcus pneumoniae [3]): 1 µg/mL (≈ 0.986 µM)
- MIC (Streptococcus pneumoniae [4]): 0.03 µg/mL (≈ 0.0296 µM)

Compound: CC[C@H]1OC(=O)[C@H](C)[C@@H](O[C@H]2C[C@@](C)(OC)[C@@H](O)[C@H](C)O2)[C@H](C)[C@@H](O[C@@H]2O[C@H](C)C[C@H](N(C)C)[C@H]2O)[C@](C)(O)C[C@@H](C)C(=O)[C@H](C)[C@@H](O)[C@]1(C)O [ERYTHROMYCIN]
- MIC (Streptococcus pneumoniae [1]): 256 µg/mL (≈ 349 µM)
- MIC (Streptococcus pneumoniae [2]): 128 µg/mL (≈ 174 µM)
- MIC (Streptococcus pneumoniae [3]): 8 µg/mL (≈ 10.9 µM)
- MIC (Streptococcus pneumoniae [4]): 0.03 µg/mL (≈ 0.0409 µM)
